Source: patent US9695155B2, “Herbicidal substituted pyrimidinyloxy benzene compounds” (E. I. DU PONT DE NEMOURS AND COMPANY, priority 2013, dated 2017)

What was measured:
[1] = test system: barnyardgrass; test: Test A preemergence; assay type: in vivo, Echinochloa crus-galli; settings: 0 to 100 scale, 0 no effect, 100 complete control, approx. 10 days
How it was run: (§1)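 Greenhouse pot test, loam/sand soil. Formulation: non-phytotoxic solvent mix plus surfactant. Pre: directed spray onto soil after sowing. Post: plants at 1–2 leaf, 2–10 cm. Rated visually vs untreated controls at ~10 d, 0 (no effect) to 100 (complete control).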

[2] = test system: kochia; test: Test A preemergence; assay type: in vivo, Kochia scoparia; settings: 0 to 100 scale, 0 no effect, 100 complete control, approx. 10 days
Text: (§2) Seeds of plant species selected from barnyardgrass (Echinochloa crus-galli), kochia (Kochia scoparia), ragweed (common ragweed, Ambrosia elatior), Italian ryegrass (Lolium multiflorum), large (Lg) crabgrass (Digitaria sanguinalis), giant foxtail (Setaria faberii), morningglory (Ipomoea spp.), pigweed (Amaranthus retroflexus), velvetleaf (Abutilon theophrasti), wheat (Triticum aestivum), and corn (Zea mays) were planted into a blend of loam soil and sand and treated preemergence with a directed soil spray using test chemicals formulated in a non-phytotoxic solvent mixture which included a surfactant.
(§3) At the same time, plants selected from these crop and weed species and also blackgrass (Alopecurus myosuroides), and galium (catchweed bedstraw, Galium aparine) were planted in pots containing the same blend of loam soil and sand and treated with postemergence applications of test chemicals formulated in the same manner. Plants ranged in height from 2 to 10 cm and were in the one- to two-leaf stage for the postemergence treatment. Treated plants and untreated controls were maintained in a greenhouse for approximately 10 days, after which time all treated plants were compared to untreated controls and visually evaluated for injury. Plant response ratings, summarized in Table A, are based on a 0 to 100 scale where 0 is no effect and 100 is complete control. A dash (-) response means no test result.

[3] = test system: ragweed; test: Test A preemergence; assay type: in vivo, Ambrosia elatior; settings: 0 to 100 scale, 0 no effect, 100 complete control, approx. 10 days
Text: as §2, §3

[4] = test system: Italian ryegrass; test: Test A preemergence; assay type: in vivo, Lolium multiflorum; settings: 0 to 100 scale, 0 no effect, 100 complete control, approx. 10 days
Text: as §2, §3

[5] = test system: giant foxtail; test: Test A preemergence; assay type: in vivo, Setaria faberii; settings: 0 to 100 scale, 0 no effect, 100 complete control, approx. 10 days
How it was run: as §1

[6] = test system: pigweed; test: Test A preemergence; assay type: in vivo, Amaranthus retroflexus; settings: 0 to 100 scale, 0 no effect, 100 complete control, approx. 10 days
How it was run: as §1

[7] = test system: barnyardgrass; test: Test A postemergence; assay type: in vivo, Echinochloa crus-galli; settings: 0 to 100 scale, 0 no effect, 100 complete control
How it was run: as §1

[8] = test system: kochia; test: Test A postemergence; assay type: in vivo, Kochia scoparia
Text: as §2, §3

[9] = test system: ragweed; test: Test A postemergence; assay type: in vivo, Ambrosia elatior
Text: as §2, §3

[10] = test system: Italian ryegrass; test: Test A postemergence; assay type: in vivo, Lolium multiflorum
Text: as §2, §3

[11] = test system: giant foxtail; test: Test A postemergence; assay type: in vivo, Setaria faberii
How it was run: as §1

[12] = test system: pigweed; test: Test A postemergence; assay type: in vivo, Amaranthus retroflexus
How it was run: as §1

[13] = test system: wheat; test: Test A postemergence; assay type: in vivo, Triticum aestivum
How it was run: as §1

[14] = test system: corn; test: Test A postemergence; assay type: in vivo, Zea mays; settings: 0 to 100 scale, 0 no effect, 100 complete control
How it was run: as §1

[15] = test system: blackgrass; test: Test A postemergence; assay type: in vivo, Alopecurus myosuroides; settings: 0 to 100 scale, 0 no effect, 100 complete control
Text: as §2, §3

[16] = test system: galium; test: Test A postemergence; assay type: in vivo, Galium aparine
Text: as §2, §3

[17] = 500 g ai/ha, 0 to 100 scale where 0 is no effect and 100 is complete control
[18] = 1000 g ai/ha, 0 to 100 scale, 0 no effect, 100 complete control

| Structure (SMILES) | Barnyardgrass plant response rating ([1]; 1000 g ai/ha) | Kochia plant response rating ([2]; 1000 g ai/ha) | Ragweed plant response rating ([3]; 1000 g ai/ha) | Ryegrass, Italian plant response rating ([4]; 1000 g ai/ha) | Foxtail, Giant plant response rating ([5]; 1000 g ai/ha) | Pigweed plant response rating ([6]; 1000 g ai/ha) | Plant response rating, Barnyardgrass ([7]; 1000 g ai/ha) | Plant response rating, Kochia [8, 18] | Plant response rating, Ragweed [9, 18] | Plant response rating, Ryegrass, Italian [10, 18] | Plant response rating, Foxtail, Giant [11, 18] | Plant response rating, Pigweed [12, 18] | Plant response rating, Wheat [13, 18] | Plant response rating, Corn ([14]; 1000 g ai/ha) | Plant response rating, Blackgrass ([15]; 1000 g ai/ha) | Plant response rating, Galium [16, 18] | other results |
| --- | --- | --- | --- | --- | --- | --- | --- | --- | --- | --- | --- | --- | --- | --- | --- | --- | --- |
| Oc1cccc(Oc2ncc(Cl)cn2)c1-n1cc(Br)cn1 [Compound 68] |  |  |  |  |  |  |  |  |  |  |  |  |  |  |  |  | Barnyardgrass plant response rating ([1]; 500 g ai/ha): 0; Kochia plant response rating ([2]; 500 g ai/ha): 0; Ragweed plant response rating ([3]; 500 g ai/ha): 0; Ryegrass, Italian plant response rating ([4]; 500 g ai/ha): 0; Foxtail, Giant plant response rating ([5]; 500 g ai/ha): 0; Pigweed plant response rating ([6]; 500 g ai/ha): 30; Plant response rating, Barnyardgrass ([7]; 500 g ai/ha): 0; Plant response rating, Kochia [8, 17]: 0; Plant response rating, Ragweed [9, 17]: 0; Plant response rating, Ryegrass, Italian [10, 17]: 0; Plant response rating, Foxtail, Giant [11, 17]: 0; Plant response rating, Pigweed [12, 17]: 0; Plant response rating, Wheat [13, 17]: 0; Plant response rating, Corn ([14]; 500 g ai/ha): 0; Plant response rating, Blackgrass ([15]; 500 g ai/ha): 0; Plant response rating, Galium [16, 17]: 0 |
| CN(C)C(=O)c1cccc(Oc2ncc(Cl)cn2)c1-n1cc(C(F)(F)F)cn1 [Compound 255] | 10 | 70 | 20 | 20 | 10 | 60 | 10 | 50 | 10 | 0 | 10 | 30 | 0 | 0 | 10 | 10 |  |
| CNC(=O)c1cccc(Oc2ncc(Cl)cn2)c1-n1cc(C(F)(F)F)cn1 [Compound 256] | 20 | 70 | 30 | 20 | 30 | 30 | 10 | 30 | 10 | 0 | 10 | 10 | 0 | 0 | 10 | 30 |  |
| CCN(C)C(=O)c1cccc(Oc2ncc(Cl)cn2)c1-n1cc(C(F)(F)F)cn1 [Compound 262] | 0 | 20 | 0 | 0 | 50 | 10 | 10 | 30 | 10 | 0 | 10 | 50 | 0 | 0 | 10 | 10 |  |
